Laboratory results from US9045461B2, “Phenyl-heteroaryl derivatives and methods of use thereof” (TransTech Pharma, LLC, priority 2010, dated 2015).
Where a name gives a salt, the structure may show the parent alone.

Columns and labels:
sRAGE binding to S100b = target: T1, sRAGE binding to S100b (Homo sapiens, UniProt Q15109); test: RAGE binding assay (ELISA), S100b as the RAGE ligand; details: compounds tested in hydrochloride salt form, concentration at which 50% signal has been inhibited
T1 construct: extracellular domain can be isolated by proteolysis of RAGE to generate soluble RAGE (sRAGE) comprised of the V and C domains
T1 sequence (Q15109 23-342 limits assumed): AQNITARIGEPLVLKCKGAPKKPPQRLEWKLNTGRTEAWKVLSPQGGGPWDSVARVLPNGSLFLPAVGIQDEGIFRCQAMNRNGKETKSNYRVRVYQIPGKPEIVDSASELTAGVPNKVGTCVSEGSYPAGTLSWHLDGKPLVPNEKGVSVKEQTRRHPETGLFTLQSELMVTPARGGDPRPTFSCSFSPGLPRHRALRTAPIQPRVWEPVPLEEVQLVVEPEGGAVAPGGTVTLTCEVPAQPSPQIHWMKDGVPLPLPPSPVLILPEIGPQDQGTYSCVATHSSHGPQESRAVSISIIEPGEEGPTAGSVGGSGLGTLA
How it was run: (§1)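 Ligand (500 ng/well) coated in carbonate buffer pH 9.8 overnight at 4° C and blocked with 1% BSA; test compound (10-100 μM in water, 4% DMSO co-solvent) incubated with sRAGE (6 nM FAC) 1 h at 37° C. Bound sRAGE detected by anti-sRAGE/biotin-anti-mouse/AP-streptavidin with pNPP, A405. IC50 = 50% signal inhibition.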

[1] = target: T2, sRAGE binding to β-amyloid (Homo sapiens, UniProt Q15109); test: RAGE binding assay (ELISA), β-amyloid as the RAGE ligand; details: compounds tested in hydrochloride salt form, concentration at which 50% signal has been inhibited
T2 construct: extracellular domain can be isolated by proteolysis of RAGE to generate soluble RAGE (sRAGE) comprised of the V and C domains
T2 sequence (Q15109 23-342 limits assumed): as above
How it was run: as §1

[2] = tested on: RAGE signaling in THP-1 cells; test: Functional assay: TNF-alpha secretion by S100b-stimulated THP-1 cells; format: cell-based; details: Homo sapiens; THP-1 cells stimulated with bovine S100b 100 μg/mL; TNF-alpha measured by ELISA 24 hours after stimulation; read-out: EC50 for TNF expression
Text: Previously the literature has cited that THP-1 cells in response to RAGE ligands secrete TNF alpha (Yeh C-H, et al. Diabetes. Vol. 50, June 2001, pp. 1495-1504). The following assay method may be used to identify compounds of Formula (I) or pharmaceutically acceptable salts thereof which are useful as antagonists of RAGE signaling.
The myeloid cell line, THP-1 (ATTC # TIB-202), may be cultured in RPMI-1640 media (ATCC, Cat #30-2001) supplemented with fetal bovine serum to a final concentration of 10% by volume and Penicillin-Streptomycin (Gibco, Cat #0.15140-122). Alternatively, media may be formulated using RPMI 1640 (Bio-Whitaker #12-702F) supplemented with 2 mM L-glutamine (Gibco #12381-018) adjusted to contain 1.5 g/L sodium bicarbonate (Gibco #25080-094), 4.5 g/L glucose, 10 mM HEPES (Cellgro #25-060-L1) and 1.0 mM sodium pyruvate (Gibco #11360-070) and supplemented with 0.05 mM 2-mercaptoethanol, […] fetal bovine serum, 10% per ATCC instructions. During culture, the culture cells are maintained at a density between 5×10^4 and 1×10^6 viable cells/mL. […]
The amount of TNF-alpha secreted by the THP-1 cells was measured 24 hours after the addition of the stimulant proteins to the cell culture using a commercially available ELISA kit (R&D Systems, Minneapolis, Minn. # DY210). […] The plate is read at 450 nm within 30 minutes. […]

Row | SMILES | IC50 (sRAGE binding to S100b) [nM] | IC50 [1] [nM] | EC50 [2] [nM]
1 | CCCCc1nnc(C(=O)NCC2(O)CCN(C)CC2)cc1-c1ccc(OC2CCCCC2)cc1 [Example 94, 6-Butyl-5-(4-cyclohexyloxy-phenyl)-pyridazine-3-carboxylic acid (4-hydroxy-1-methyl-piperidin-4-ylmethyl)-amide dihydrochloride] | 2550 | 1950 | 
2 | CCCCc1nnc(C(=O)NC2CC3CCC(C2)N3C)cc1-c1ccc(OC2CCCCC2)cc1 (centres unmarked) [Example 96, 6-Butyl-5-(4-cyclohexyloxy-phenyl)-pyridazine-3-carboxylic acid (8-methyl-8-aza-bicyclo[3.2.1]oct-3-yl)-amide dihydrochloride] | 1160 | 940 | 
3 | CCCCc1nnc(C(=O)N2CCO[C@@H](CN(C)C)C2)cc1-c1ccc(OC2CCCCC2)cc1 [Example 97, [6-Butyl-5-(4-cyclohexyloxy-phenyl)-pyridazin-3-yl]-((S)-2-dimethylaminomethyl-morpholin-4-yl)-methanone dihydrochloride] | 1890 | 1720 | 
4 | CCCCc1nnc(C(=O)N2CCO[C@H](CN(C)C)C2)cc1-c1ccc(OC2CCCCC2)cc1 [Example 98, [6-Butyl-5-(4-cyclohexyloxy-phenyl)-pyridazin-3-yl]-((R)-2-dimethylaminomethyl-morpholin-4-yl)-methanone dihydrochloride] | 1990 | 1620 | 
5 | CCCCc1nnc(C(=O)NCC2CN(C)CCC2(F)F)cc1-c1ccc(OC2CCCCC2)cc1 (centres unmarked) [Example 99, 6-Butyl-5-(4-cyclohexyloxy-phenyl)-pyridazine-3-carboxylic acid (4,4-difluoro-1-methyl-piperidin-3-ylmethyl)-amide dihydrochloride] | 1820 | 1810 | 
6 | CCCCc1nnc(C(=O)NCC2CCN(C)CC2)cc1-c1ccc(OC2CCCCC2)cc1 [Example 103, 6-Butyl-5-(4-cyclohexyloxy-phenyl)-pyridazine-3-carboxylic acid (1-methyl-piperidin-4-ylmethyl)-amide dihydrochloride] | 1770 | 1110 | 
7 | CCCCc1nnc(C(=O)N2CCC(CN(C)C)C(F)(F)C2)cc1-c1ccc(OC2CCCCC2)cc1 (centres unmarked) [Example 105, [6-Butyl-5-(4-cyclohexyloxy-phenyl)-pyridazin-3-yl]-(4-dimethylaminomethyl-3,3-difluoro-piperidin-1-yl)-methanone dihydrochloride] | 1390 | 2120 | 
8 | CCCCc1nnc(C(=O)N2CCC(O)C(CN(C)C)C2)cc1-c1ccc(OC2CCCCC2)cc1 (centres unmarked) [Example 106, [6-Butyl-5-(4-cyclohexyloxy-phenyl)-pyridazin-3-yl]-(3-dimethylaminomethyl-4-hydroxyoxy-piperidin-1-yl)-methanone dihydrochloride] | 2180 | 1750 | 
9 | CCCCc1nnc(C(=O)NCC2=CCN(C)CC2)cc1-c1ccc(OC2CCCCC2)cc1 [Example 108, 6-Butyl-5-(4-cyclohexyloxy-phenyl)-pyridazine-3-carboxylic acid (1-methyl-1,2,3,6-tetrahydro-pyridin-4-ylmethyl)-amide dihydrochloride] | 1170 | 860 | 
10 | CCCCc1nnc(C(=O)NCC2(F)CCN(C)CC2)cc1-c1ccc(OC2CCCCC2)cc1 [Example 109, 6-Butyl-5-(4-cyclohexyloxy-phenyl)-pyridazine-3-carboxylic acid (4-fluoro-1-methyl-piperidin-4-ylmethyl)-amide dihydrochloride] | 5840 | 5830 | 
11 | CCCCc1nnc(C(=O)NC2(CO)CCN(C)C2)cc1-c1ccc(OC2CCCCC2)cc1 (centres unmarked) [Example 111, 6-Butyl-5-(4-cyclohexyloxy-phenyl)-pyridazine-3-carboxylic acid (3-hydroxymethyl-1-methyl-pyrrolidin-3-yl)-amide dihydrochloride] | 2120 | 2920 | 

The next compounds have a lower IC50 (sRAGE binding to S100b) than those just listed; values first:

Row | IC50 (sRAGE binding to S100b) [nM] | IC50 [1] [nM] | EC50 [2] [nM] | SMILES
12 | 1120 | 1000 |  | CCCCc1nnc(C(=O)N(C2CC2)C2CCN(C)CC2)cc1-c1ccc(OC2CCCCC2)cc1 [Example 115, 6-Butyl-5-(4-cyclohexyloxy-phenyl)-pyridazine-3-carboxylic acid cyclopropyl-(1-methyl-piperidin-4-yl)-amide dihydrochloride]
13 | 1080 | 970 |  | CCCCc1nnc(C(=O)N(C)C2CCN(C)CC2)cc1-c1ccc(OC2CCCCC2)cc1 [Example 114, 6-Butyl-5-(4-cyclohexyloxy-phenyl)-pyridazine-3-carboxylic acid methyl-(1-methyl-piperidin-4-yl)-amide dihydrochloride]
14 | 810 | 820 | 1260 | CCCCc1nnc(OC2CCN(C)CC2)cc1-c1ccc(OC2CCCCC2)cc1 [Example 14, 3-Butyl-4-(4-cyclohexyloxy-phenyl)-6-(1-methyl-piperidin-4-yloxy)-pyridazine dihydrochloride]
15 | 690 | 1050 |  | CCCCc1nnc(C(=O)N[C@H]2CC[C@@H](N(C)C)CC2)cc1-c1ccc(OC2CCCCC2)cc1 [Example 95, (±)-(cis)-6-Butyl-5-(4-cyclohexyloxy-phenyl)-pyridazine-3-carboxylic acid (4-dimethylamino-cyclohexyl)-amide dihydrochloride]
16 | 660 | 940 |  | CCCCc1nnc(C(=O)NCC2CN(C)CCC2OC)cc1-c1ccc(OC2CCCCC2)cc1 (centres unmarked) [Example 101, 6-Butyl-5-(4-cyclohexyloxy-phenyl)-pyridazine-3-carboxylic acid (4-methoxy-1-methyl-piperidin-3-ylmethyl)-amide dihydrochloride]
17 | 590 | 1160 |  | CCCCc1nnc(C(=O)NCC2CN(C)CCC2O)cc1-c1ccc(OC2CCCCC2)cc1 (centres unmarked) [Example 100, 6-Butyl-5-(4-cyclohexyloxy-phenyl)-pyridazine-3-carboxylic acid (4-hydroxy-1-methyl-piperidin-3-ylmethyl)-amide dihydrochloride]
